Data as given in ChEMBL document CHEMBL3390845, “Development of second generation amidinohydrazones, thio- and semicarbazones as Trypanosoma cruzi-inhibitors bearing benzofuroxan and benzimidazole 1,3-dioxide core scaffolds” (Medchemcomm, 2010).

Key:
[1] = target: Cruzipain (Trypanosoma cruzi) (UniProt P25779); assay: Inhibition of Trypanosoma cruzi Cruzipain using Z-Phe-Arg-AMC as substrate at 100 uM at pH 7.3 measured for 10 mins by spectrofluorimetric analysis relative to control
[2] = target: Cruzipain (Trypanosoma cruzi) (UniProt P25779); assay: Inhibition of Trypanosoma cruzi Cruzipain using Z-Phe-Arg-AMC as substrate measured for 10 mins by spectrofluorimetric analysis relative to control
[3] = Hemolytic activity in human RBC assessed as hemoglobin release after 24 hrs by spectrophotometry; type: ADME, cell-based, Erythrocyte; settings: for HC50 at 24 h: human red blood cells (RBC), read-out: ID50; for ID50: erythrocyte, 24 h
Trypanosoma cruzi = assay: Antitrypanosomal activity against epimastigotes of Trypanosoma cruzi Tulahuen 2 assessed as parasite growth inhibition after 5 days; type: functional; settings: Tulahuen 2, 120 h, read-out: ID50 (the source's name)
[4] = Cytotoxicity in mouse J774 cells assessed as cell viability after 48 hrs by MTT assay; type: cell-based; settings: read-out: ID50
[5] = target: Cruzipain (Trypanosoma cruzi) (UniProt P25779); assay: Inhibition of Trypanosoma cruzi Cruzipain using Z-Phe-Arg-AMC as substrate at 100 uM at pH 5.3 measured for 10 mins by spectrofluorimetric analysis relative to control
[6] = Selectivity index, ratio of ID50 for mouse J774 cells to ID50 for epimastigotes of Trypanosoma cruzi Tulahuen 2; type: toxicity, cell-based; settings: read-out: Selectivity Index
[7] = Selectivity index, ratio of ID50 for human RBC to ID50 for epimastigotes of Trypanosoma cruzi Tulahuen 2
[8] = target: Cruzipain (Trypanosoma cruzi) (UniProt P25779); assay: Inhibition of Trypanosoma cruzi Cruzipain using Z-Phe-Arg-AMC as substrate at 100 uM at pH 7.3 measured for 10 mins by spectrofluorimetric analysis relative to control in presence of Triton X-100

Chain of Cruzipain (Trypanosoma cruzi) (P25779 123-467 limits assumed): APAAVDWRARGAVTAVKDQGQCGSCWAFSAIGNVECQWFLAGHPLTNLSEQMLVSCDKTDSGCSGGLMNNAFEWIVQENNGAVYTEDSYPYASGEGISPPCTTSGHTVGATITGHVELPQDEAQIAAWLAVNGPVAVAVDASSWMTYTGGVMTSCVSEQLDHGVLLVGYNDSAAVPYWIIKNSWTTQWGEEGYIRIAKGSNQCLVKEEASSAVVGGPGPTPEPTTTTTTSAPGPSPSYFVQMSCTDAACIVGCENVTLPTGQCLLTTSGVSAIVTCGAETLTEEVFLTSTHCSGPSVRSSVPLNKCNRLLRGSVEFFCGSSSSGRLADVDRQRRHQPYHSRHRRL

Row | Compound | inhibition [1] | ID50 [2] | IC50 (Trypanosoma cruzi) | inhibition [5] | inhibition [8] | HC50 at 24 h [3] | ID50 [3] | CC50 at 48 h [4] | selectivity ratio [6] | Selectivity Index [7]
1 | N=C(N)N/N=C/c1cccc(OCc2ccc3no[n+]([O-])c3c2)c1 | 42% | 100 µM | > 25 µM | 28% |  | > 100 µM |  |  |  | 
2 | NC(=S)N/N=C/c1ccc(OCc2ccc3no[n+]([O-])c3c2)cc1 |  | 43 µM |  |  |  | > 200 µM |  |  | 26.7 | > 13.3
3 | CC1(C)[N+]([O-])=c2ccc(COc3ccccc3/C=N\NC(N)=O)cc2=[N+]1[O-] | 0% | > 100 µM | 4.7 µM |  |  | 50 µM |  |  |  | 
4 | [O-][n+]1onc2ccc(/C=N/NC(=S)Nc3ccccc3)cc21 |  | 78 µM | 8.3 µM |  |  |  |  |  |  | 
5 | C=CCNC(=S)N/N=C/c1cccc(OCc2ccc3no[n+]([O-])c3c2)c1 | 100% | 55 µM | 13 µM | 79% | 90% |  | ND(Insoluble) |  |  | 
6 | O=Cc1ccccc1OCc1ccc2no[n+]([O-])c2c1 | 0% | > 100 µM | 6.3 µM |  |  | > 100 µM |  | 78 µM | 12.4 | > 15.9
7 | CC1(C)[N+]([O-])=c2ccc(COc3ccc(C=O)cc3)cc2=[N+]1[O-] | 35.5% | > 100 µM | 17 µM |  |  | 65 µM |  | < 100 µM |  | 
8 | C=CCNC(=S)N/N=C/c1ccc(OCc2ccc3c(c2)=[N+]([O-])C(C)(C)[N+]=3[O-])cc1 | 51% | 100 µM | 23 µM |  |  | > 100 µM |  |  |  | 
9 | CC1CS(=O)(=O)CCN1/N=C/c1ccc([N+](=O)[O-])o1 (stereo not given) [NIFURTIMOX] |  |  |  |  |  | > 100 µM |  |  |  | 13
10 | CC1(C)[N+]([O-])=c2ccc(COc3ccc(/C=N/NC(N)=S)cc3)cc2=[N+]1[O-] | 13.7% | > 100 µM | 17 µM |  |  |  | ND(Insoluble) |  |  | 
11 | NC(=O)N/N=C/c1ccc(OCc2ccc3no[n+]([O-])c3c2)cc1 |  | > 100 µM |  |  |  | > 200 µM |  |  |  | 
12 | O=Cc1cccc(OCc2ccc3no[n+]([O-])c3c2)c1 | 43% | 100 µM | 28 µM |  |  | 50 µM |  |  |  | 
13 | C[C@@H]1[C@H](O)[C@@H](C)/C=C/C=C/C=C/C=C/C=C/C=C/C=C/[C@H](O[C@@H]2O[C@H](C)[C@@H](O)[C@H](N)[C@@H]2O)C[C@@H]2O[C@](O)(C[C@@H](O)C[C@@H](O)[C@H](O)CC[C@@H](O)C[C@@H](O)CC(=O)O[C@H]1C)C[C@H](O)[C@H]2C(=O)O [AMPHOTERICIN B] |  |  |  |  |  | 1.5 µM |  |  |  | 10
14 | [O-][n+]1onc2ccc(COc3ccc(/C=N/NC(=S)Nc4ccccc4)cc3)cc21 | 95% | 75 µM | 7 µM |  |  |  | ND(Insoluble) |  |  | 
15 | C/C(=N/NC(=N)N)c1ccccc1OCc1ccc2no[n+]([O-])c2c1 | 21% | > 100 µM | 16.6 µM |  |  | > 200 µM |  |  |  | 
16 | CC(=O)c1ccccc1OCc1ccc2no[n+]([O-])c2c1 | 12% | > 100 µM | 7 µM |  |  | > 200 µM |  |  |  | 

Now from value to compound, other results behind:

Row | inhibition [1] | ID50 [2] | IC50 (Trypanosoma cruzi) | inhibition [5] | inhibition [8] | Compound | HC50 at 24 h [3] | ID50 [3] | CC50 at 48 h [4] | selectivity ratio [6] | Selectivity Index [7]
17 | 95% | 64 µM | 24 µM |  |  | CC1(C)[N+]([O-])=c2ccc(COc3cccc(/C=N/NC(N)=S)c3)cc2=[N+]1[O-] | 141 µM |  |  |  | 
18 | 38% | > 100 µM | > 25 µM |  |  | C=CCNC(=S)N/N=C/c1ccc(OCc2ccc3no[n+]([O-])c3c2)cc1 |  | ND(Insoluble) |  |  | 
19 | 0% | > 100 µM | > 25 µM |  |  | CC(=O)c1ccccc1OCc1ccc2c(c1)=[N+]([O-])C(C)(C)[N+]=2[O-] | < 50 µM |  |  |  | 
20 | 49% | 100 µM | > 25 µM |  |  | NC(=S)N/N=C\c1ccccc1OCc1ccc2no[n+]([O-])c2c1 | 189 µM |  | < 100 µM |  | 
21 | 6.3% | > 100 µM |  |  |  | O=Cc1ccc(OCc2ccc3no[n+]([O-])c3c2)cc1 | < 50 µM |  |  |  | 
22 | 39% | > 100 µM | > 25 µM |  |  | N=C(N)N/N=C\c1ccccc1OCc1ccc2no[n+]([O-])c2c1 | 58 µM |  | < 100 µM |  | 
23 | 45% | 100 µM | > 25 µM |  |  | CC1(C)[N+]([O-])=c2ccc(COc3cccc(C=O)c3)cc2=[N+]1[O-] | < 50 µM |  |  |  | 
24 | 7% | > 100 µM | > 25 µM |  |  | NC(=O)N/N=C\c1ccccc1OCc1ccc2no[n+]([O-])c2c1 | > 100 µM |  | < 100 µM |  | 
25 | 80% | 78 µM | 15 µM |  |  | NC(=S)N/N=C/c1cccc(OCc2ccc3no[n+]([O-])c3c2)c1 |  | ND(Insoluble) |  |  | 
26 |  | 68 µM | > 25 µM |  |  | [O-][n+]1onc2ccc(/C=N/N=C/c3ccccc3O)cc21 |  |  |  |  | 
27 |  |  | 7.2 µM |  |  | C=CCNC(=S)N/N=C/c1ccc2c(c1)=[N+]([O-])C(C)(C)[N+]=2[O-] |  |  |  |  | 
28 | 6.6% | > 100 µM | 2.7 µM |  |  | C=CCNC(=S)N/N=C\c1ccccc1OCc1ccc2c(c1)=[N+]([O-])C(C)(C)[N+]=2[O-] |  | ND(Insoluble) |  |  | 
29 | 35% | > 100 µM | 14 µM |  |  | CC1(C)[N+]([O-])=c2ccc(COc3ccccc3/C=N\NC(N)=S)cc2=[N+]1[O-] | > 200 µM |  |  |  | 
30 | 11% | > 100 µM | 23 µM |  |  | C=CCNC(=S)N/N=C\c1ccccc1OCc1ccc2no[n+]([O-])c2c1 | 139 µM |  | 138 µM |  | 
31 | 72% | 85 µM | > 25 µM |  |  | CC1(C)[N+]([O-])=c2ccc(COc3ccc(/C=N/NC(=S)Nc4ccccc4)cc3)cc2=[N+]1[O-] | < 50 µM |  |  |  | 
32 | 2.5% | > 100 µM | > 25 µM |  |  | CC1(C)[N+]([O-])=c2ccc(COc3ccccc3/C=N\NC(=N)N)cc2=[N+]1[O-] | 114 µM |  |  |  | 
33 |  | 32 µM |  |  |  | N=C(N)N/N=C/c1ccc(OCc2ccc3no[n+]([O-])c3c2)cc1 | > 200 µM |  |  |  | 
34 |  | 73 µM | 25 µM |  |  | [O-][n+]1onc2ccc(/C=N/N=C/c3cc(Br)ccc3O)cc21 |  |  |  |  | 
35 | 0% | > 100 µM | > 25 µM |  |  | CC1(C)[N+]([O-])=c2ccc(COc3ccc(/C=N/NC(N)=O)cc3)cc2=[N+]1[O-] | > 200 µM |  |  |  | 
36 | 0% | > 100 µM | 7.7 µM |  |  | CC1(C)[N+]([O-])=c2ccc(COc3ccccc3/C=N\NC(=S)Nc3ccccc3)cc2=[N+]1[O-] | 66 µM |  | < 100 µM |  | 
37 | 0% | > 100 µM | 3.6 µM |  |  | [O-][n+]1onc2ccc(COc3ccccc3/C=N\NC(=S)Nc3ccccc3)cc21 | > 200 µM |  | > 400 µM | > 111 | > 55.6
